Assay results published in patent US20140039044A1, “Hydroxylated Polymethoxyflavone Compositions” (WLLGEN, INC., priority 2006, published 2014).
Read-outs that look alike come from different tables or passages of the source.

Legend:
Assay type in all cases: cell-based, human
HT-29 cells [1] = experiment: Cell cycle distribution by flow cytometry; settings: for Cell Cycle Distribution G0/G1 / Cell Cycle Distribution G2/M / Cell Cycle Distribution S: 24 h
Description: (§1) The human cancer cells (2×10^5) were cultured in 60-mm Petri dishes and incubated for 24 h. After treated with test compounds for 24 h, the cells were then harvested, washed with PBS resuspended in 200 μL of PBS, and fixed in 800 μL of iced 100% ethanol at −20° C. After being left to stand overnight, the cell pellets were collected by centrifugation, resuspended in 1 mL of hypotonic buffer (0.5% Triton X-100 in PBS and 0.5 μg/mL RNase) and incubated at 37° C. for 30 min. Next, 1 mL of propidium iodide solution (50 μg/mL) was added, and the mixture was allowed to stand on ice for 30 min. Fluorescence emitted from the propidium iodide-DNA complex was quantitated after excitation of the fluorescent dye by FACScan cytometry (Becton Dickinson, San Jose, Calif.).
(§2) Compounds A-K were evaluated in terms of their effects in arresting cell cycle progression by observing cell cycle phase distribution in cells treated with the compounds. Cells were treated with 5, 10, 25, 50, and 100 μM of one of compound A-K or DMSO (control) for 24 h and subjected to flow cytometric analysis after staining their DNA, as described above.
Similar cell cycle phase distribution studies were performed in AGS, COLO205, and HT-29 cells in response to individual PMFs, with results reported in Tables 11, 12 and 13, respectively.

HL-60 cells [2] = experiment: Cell cycle distribution by flow cytometry; settings: 24 h; for Cell Cycle Distribution G0/G1 / Cell Cycle Distribution G2/M / Cell Cycle Distribution S: Table 10
Description: as §1
The effects of the hydrolyzed PMF-enriched compositions, nobiletin and 70% PMF OPE on cell cycle distribution were studied, following the procedures described in Section 8.4. Results for cell cycle distribution in HL-60 cells, COLO205 cells and AGS cells are provided in Table 5, Table 6 and Table 7, respectively. […] In HL-60 cells, G2/M arrest predominated in cells treated with 6N PMF concentrations ≧5 μM and with 1N PMF concentrations ≧25 μM.
as §2

HT-29 cells [3] = experiment: Apoptotic ratio by propidium iodide flow cytometry (AC50); settings: read-out: Apoptosis-inducing AC50
Description: as §1
(§3) The PMF compounds were assayed in vitro for cell growth inhibition and for their ability to induce apoptosis in various human cancer cells, including HL-60, AGS, COLO 205, and HT-29 cells, using methods described in Section 8.4 above. Antiproliferative (IC50) and apoptosis-inducing activity (AC50) of PMFs in the HL-60, AGS, COLO 205, and HT-29 cells are reported in Table 9, where *P<0.05, **P<0.01 and ***P<0.001 indicate statistically significant differences from the control group.

AGS cells = experiment: as above; settings: AGS cells, read-out: Apoptosis-inducing AC50
Description: as §1
(§4) 1 N PMF and 6 N PMF compositions containing hydroxylated PMFs, prepared as described in Section 8.3 above, 70% PMF OPE and 5,6,7,8,3′,4′-hexamethoxyflavone (nobiletin) were tested for antiproliferative activity and apoptosis-inducing activity in HL-60, AGS and COLO205 cells as described in Section 8.4 above. Antiproliferative and apoptosis-inducing activities were derived as IC50 values and AC50, values, respectively, where AC50 is the concentration required for 50% apoptosis.
as §3

HL-60 cells [4] = experiment: as above; settings: HL-60 cells, read-out: Apoptosis-inducing AC50
Description: as §1, §4, §3

COLO205 cells = experiment: as above; settings: COLO205 cells, read-out: Apoptosis-inducing AC50
Description: as §1, §4, §3

| SMILES | Cell Cycle Distribution G0/G1 (HT-29 cells [1]; 5 μM) | Cell Cycle Distribution G2/M (HT-29 cells [1]; 5 μM) | Cell Cycle Distribution S (HT-29 cells [1]; 5 μM) | Cell Cycle Distribution G0/G1 (HT-29 cells [1]; 10 μM) | Cell Cycle Distribution G2/M (HT-29 cells [1]; 10 μM) | Cell Cycle Distribution S (HT-29 cells [1]; 10 μM) | Cell Cycle Distribution G0/G1 (HT-29 cells [1]; 25 μM) | Cell Cycle Distribution G2/M (HT-29 cells [1]; 25 μM) | Cell Cycle Distribution S (HT-29 cells [1]; 25 μM) | Cell Cycle Distribution G0/G1 (HT-29 cells [1]; 50 μM) | Cell Cycle Distribution G2/M (HT-29 cells [1]; 50 μM) | Cell Cycle Distribution S (HT-29 cells [1]; 50 μM) | Cell Cycle Distribution G0/G1 (HT-29 cells [1]; 100 μM) | Cell Cycle Distribution G2/M (HT-29 cells [1]; 100 μM) | Cell Cycle Distribution S (HT-29 cells [1]; 100 μM) | Cell Cycle Distribution G0/G1 (HL-60 cells [2]; 5 μM) | Cell Cycle Distribution G2/M (HL-60 cells [2]; 5 μM) | Cell Cycle Distribution S (HL-60 cells [2]; 5 μM) | Cell Cycle Distribution G0/G1 (HL-60 cells [2]; 10 μM) | Cell Cycle Distribution G2/M (HL-60 cells [2]; 10 μM) | further results |
| --- | --- | --- | --- | --- | --- | --- | --- | --- | --- | --- | --- | --- | --- | --- | --- | --- | --- | --- | --- | --- | --- |
| COc1ccc(-c2oc3c(OC)c(OC)c(OC)c(OC)c3c(=O)c2OC)cc1OC [D, 3,5,6,7,8,3,4-heptamethoxyflavone, reference compound] | 67.79 ± 0.17 | 7.56 ± 0.23 | 24.66 ± 0.06 | 57.61 ± 0.69 | 10.41 ± 0.45 | 30.98 ± 1.18 | 76.11 ± 1.56 | 9.04 ± 2.77 | 14.89 ± 1.21 | 77.31 ± 2.82 | 12.21 ± 0.74 | 20.49 ± 2.09 | 80.66 ± 0.01 | 3.79 ± 0.43 | 15.57 ± 0.43 | 50.66 ± 1.20 | 4.88 ± 0.49 | 44.46 ± 0.49 | 52.79 ± 0.99 | 5.09 ± 0.35 | Cell cycle arrest, in words (HT-29 cells [1]; 5-100 μM, 24 h exposure): significant accumulation of cells in G1 phase; Cell Cycle Distribution S (HL-60 cells [2]; 10 μM): 42.12 ± 0.49; Cell Cycle Distribution G0/G1 (HL-60 cells [2]; 25 μM): 57.63 ± 0.14; Cell Cycle Distribution G2/M (HL-60 cells [2]; 25 μM): 0.09 ± 0.71; Cell Cycle Distribution S (HL-60 cells [2]; 25 μM): 42.28 ± 0.57; Cell Cycle Distribution G0/G1 (HL-60 cells [2]; 50 μM): 80.79 ± 0.71; Cell Cycle Distribution G2/M (HL-60 cells [2]; 50 μM): 0.21 ± 0.42; Cell Cycle Distribution S (HL-60 cells [2]; 50 μM): 19.00 ± 0.78; Cell Cycle Distribution G0/G1 (HL-60 cells [2]; 100 μM): 84.06 ± 0.57; Cell Cycle Distribution G2/M (HL-60 cells [2]; 100 μM): 0.47 ± 0.21; Cell Cycle Distribution S (HL-60 cells [2]; 100 μM): 15.47 ± 1.06; Cell cycle arrest, in words (HL-60 cells [2]; 25-100 μM): significant G1 arrest; AC50 (HT-29 cells [3]): > 100 µM; AC50 (AGS cells): > 100 µM; AC50 (HL-60 cells [4]): > 100 µM; AC50 (COLO205 cells): > 100 µM |
| COc1cc(-c2cc(=O)c3c(O)c(OC)c(OC)c(OC)c3o2)cc(OC)c1OC [E, 5-hydroxy-6,7,8,3′,4′,5′-hexamethoxyflavone] | 57.96 ± 0.21 | 10.19 ± 0.07 | 31.85 ± 0.14 | 57.86 ± 0.31 | 10.01 ± 0.46 | 32.14 ± 0.78 | 59.20 ± 0.06 | 9.63 ± 0.69 | 31.18 ± 0.74 | 58.95 ± 0.95 | 9.26 ± 0.16 | 31.79 ± 1.12 | 61.79 ± 1.47 | 8.79 ± 1.23 | 29.42 ± 0.24 | 40.16 ± 1.10 | 6.01 ± 1.64 | 53.83 ± 0.54 | 40.43 ± 2.14 | 5.57 ± 1.17 | Cell Cycle Distribution S (HL-60 cells [2]; 10 μM): 54.01 ± 0.98; Cell Cycle Distribution G0/G1 (HL-60 cells [2]; 25 μM): 41.35 ± 2.50; Cell Cycle Distribution G2/M (HL-60 cells [2]; 25 μM): 6.27 ± 1.05; Cell Cycle Distribution S (HL-60 cells [2]; 25 μM): 52.38 ± 1.46; Cell Cycle Distribution G0/G1 (HL-60 cells [2]; 50 μM): 37.64 ± 1.09; Cell Cycle Distribution G2/M (HL-60 cells [2]; 50 μM): 7.73 ± 0.62; Cell Cycle Distribution S (HL-60 cells [2]; 50 μM): 54.64 ± 0.49; Cell Cycle Distribution G0/G1 (HL-60 cells [2]; 100 μM): 42.95 ± 0.11; Cell Cycle Distribution G2/M (HL-60 cells [2]; 100 μM): 7.27 ± 0.84; Cell Cycle Distribution S (HL-60 cells [2]; 100 μM): 49.79 ± 0.95; AC50 (HT-29 cells [3]; Homo sapiens): > 100 µM; AC50 (AGS cells; Homo sapiens): > 100 µM; AC50 (HL-60 cells [4]; Homo sapiens): > 100 µM; AC50 (COLO205 cells; Homo sapiens, COLO 205): > 100 µM |
